Laboratory results published in publication PMC11990879, “Anticandidal Activity of Lipopeptides Containing an LL-37-Derived Peptide Fragment KR12” (Molecules, 2025).
≈ marks a conversion by molar mass, not a printed value. Like-named read-outs stand apart in the source and are kept apart here. Marks after values point to notes of the source that are not given here. Where a SMILES comes first, the peptide text is derived from it. Where no end group is shown, it is not given here. The star is where a group is joined. Benzoyl(4-Ph) = O=C(c1ccc(-c2ccccc2)cc1)*; Decanoyl = CCCCCCCCCC(=O)*; Octanoyl = CCCCCCCC(=O)*; PhAc = O=C(Cc1ccccc1)*; Bz = O=C(c1ccccc1)*

What was measured:
[1] = tested on: Candida strains (C. albicans, C. glabrata, C. lipolytica, C. tropicalis); type: cell-based; conditions: for Fungicidal activity (MFC relative to MIC): MFCs equal to or twice as high as the corresponding MICs
Protocol: (§1) Fungal strains were purchased from the Polish Collection of Microorganisms (Polish Academy of Science, Wroclaw, Poland). Four reference strains of Candida (C. albicans ATCC 10231, C. glabrata ATCC 15126, C. lypolytica PCM 2680, and C. tropicalis PCM 2680) were cultured on the Dextrose Sabouraud Agar (DSA, Neogen, Lansing, MI, USA). Before performing the assays, the fungi were cultured in a Sabouraud dextrose broth (DSB, Neogen, Lansing, MI, USA) for 48 h under aerobic conditions at 25 °C. Afterward, the fungal cultures were centrifuged (2500 rpm, 10 min) and resuspended in the appropriate liquid medium for appropriate inoculums for the performed assays.
(§2) The strains cultured described in Section 4.1 were suspended in the Roswell Park Memorial Institute 1640 Medium (RPMI, Sigma-Aldrich, St. Louis, MO, USA) at an initial inoculum of ca. 5 × 10^3 CFU/mL. The stock solutions (1024 mg/L) of tested compounds in RPMI were added to 96-well polystyrene plates and diluted serially to well no. 10, leaving wells 11 and 12 for fertility and sterility controls. The tested Candida strains were exposed to graded concentrations (range 0.5–256 mg/L) of the lipopeptides and conventional antifungals (benzalkonium chloride, fluconazole, and nystatin) for 48 h under aerobic conditions at 25 °C. After incubation, the results were read visually.
(§3) Then the results were read visually. Both MIC as well as the MFC assays were performed threetimes on three different days.

[2] = tested on: C. albicans biofilms cultured on polystyrene; type: cell-based, Candida albicans
Protocol: as §1
Fungal suspensions in DSB were added to the wells at initial inoculums of ca. 5 × 10^6 CFU/mL and incubated under aerobic conditions, at 25 °C for 24 h, 48 h, and 72 h, in order to grow candidal biofilms of different maturity. After the appropriate time of incubation, the wells were washed with phosphoric buffered (PBS), and fresh RPMI medium supplemented with antifungals and the lipopeptides at graded concentrations (range […]) were added. The fungal biofilms were exposed to the compounds for 24 h (aerobic conditions, 25 °C). After the exposure to antifungals, the content of the wells was aspirated and a 0.01% solution of resazurin (Sigma-Aldrich, St. Louis, MO, USA) in DSB was added. Resazurin (blue) was applied as a cell viability reagent, which upon contact with living cells is reduced to a pink resorufin. The samples with the dye were incubated for 1 h at 25 °C and the absorbance was measured at 570 and 600 nm with a microplate reader (Thermo Fisher Scientific, Waltham, MA, USA). The assays were performed four times on four different days. The results are presented as the means of the measured percentage of metabolic activity (MA) of fungi in the well when compared with positive (sample with Candida in DSB) and negative controls (pure DSB), which were taken as 100% and 0%, respectively. The MA of Candida in the samples was measured according to the following formula:MA(%) = (ΔAbs of sample − ΔAbs of negative control)/(ΔAbs of positive control − ΔAbs of negative control);(1) ΔAbs = absorbance at 570 nm − absorbance at 600 nm.(2)
The MBEC was taken as the lowest concentration of antifungal which allowed us to reduce the metabolism of fungal cells to 10% (or less) of the positive control.

[3] = tested on: C. albicans biofilms cultured on polystyrene; type: cell-based, Candida albicans; conditions: C. albicans biofilms of 24, 48 and 72 h, up to 512 mg/L
[4] = tested on: human red blood cells; conditions: cited from earlier work
Excerpt: Table 2 Minimum inhibitory concentrations (MIC) and minimum fungicidal concentrations (MFC) determined for peptides and reference antifungals [g/L]. The highest antimicrobial activity is marked in green, medium values in yellow, while the weakest antifungal activity is marked in red. Minimum hemolytic concentration (MHC5%—causing hemolysis of 5% of human red blood cells) determined in previous stu | column: MHC5%

[5] = tested on: C. lypolytica PCM 2680; test: microbe, parasite or virus in culture; type: cell-based, Candida lipolytica; conditions: RPMI 1640, inoculum ca. 5 × 10^3 CFU/mL, range 0.5–256 mg/L, 48 h, 25 °C, read visually, three times on three days
Protocol: as §1, §2

[6] = tested on: C. glabrata ATCC 15126; test: microbe, parasite or virus in culture; type: cell-based, Candida glabrata; conditions: MIC wells and two higher concentrations seeded on DSA, 48 h, 25 °C, read visually, three times
Protocol: as §1, §2, §3

[7] = tested on: C. albicans ATCC 10231; test: microbe, parasite or virus in culture; type: cell-based, Candida albicans; conditions: MIC wells and two higher concentrations seeded on DSA, 48 h, 25 °C, read visually, three times
Protocol: as §1, §2, §3

[8] = tested on: C. glabrata ATCC 15126; test: microbe, parasite or virus in culture; type: cell-based, Candida glabrata; conditions: first C. glabrata column; RPMI 1640, inoculum ca. 5 × 10^3 CFU/mL, range 0.5–256 mg/L, 48 h, 25 °C, read visually, three times on three days
Protocol: as §1, §2

[9] = tested on: C. tropicalis PCM 2680; test: microbe, parasite or virus in culture; type: cell-based, Candida tropicalis; conditions: for Minimum inhibitory concentration (MIC), C. tropicalis: RPMI 1640, inoculum ca. 5 × 10^3 CFU/mL, range 0.5–256 mg/L, 48 h, 25 °C, read visually, three times on three days
Protocol: as §1, §2

[10] = tested on: C. albicans ATCC 10231; test: microbe, parasite or virus in culture; type: cell-based, Candida albicans; conditions: for Minimum inhibitory concentration (MIC), C. albicans: RPMI 1640, inoculum ca. 5 × 10^3 CFU/mL, range 0.5–256 mg/L, 48 h, 25 °C, read visually, three times on three days
Protocol: as §1, §2

[11] = tested on: C. lypolytica PCM 2680; test: microbe, parasite or virus in culture; type: cell-based, Candida lipolytica; conditions: MIC wells and two higher concentrations seeded on DSA, 48 h, 25 °C, read visually, three times
Protocol: as §1, §2, §3

[12] = tested on: C. tropicalis PCM 2680; test: microbe, parasite or virus in culture; type: cell-based, Candida tropicalis; conditions: MIC wells and two higher concentrations seeded on DSA, 48 h, 25 °C, read visually, three times
Protocol: as §1, §2, §3

[13] = C. albicans biofilm cultured on polystyrene for 24 h, exposure 24 h, 25 °C, RPMI, resazurin, metabolic activity reduced to 10% or less, four times on four days
[14] = C. albicans biofilm cultured on polystyrene for 48 h, exposure 24 h, 25 °C, RPMI, resazurin, metabolic activity reduced to 10% or less, four times on four days
[15] = C. albicans biofilm cultured on polystyrene for 72 h, exposure 24 h, 25 °C, RPMI, resazurin, metabolic activity reduced to 10% or less, four times on four days
[16] = biofilms cultured on polystyrene, 24 h
[17] = biofilms cultured on polystyrene, 48 h
[18] = biofilms cultured on polystyrene, 72 h
[19] = human red blood cells, determined in previous studies, ref [13],[14]
[20] = no inhibition at the highest concentration applied

| Molecule | MHC5% (minimum hemolytic concentration causing hemolysis of 5% of human red blood cells) [4] | MBEC 24 h [2, 16] | MBEC 48 h [2, 17] | MBEC 72 h [2, 18] | Minimum inhibitory concentration (MIC), C. lipolytica [5] [µg/mL] | Minimum fungicidal concentration (MFC), C. glabrata [6] [µg/mL] | Minimum fungicidal concentration (MFC), C. albicans [7] [µg/mL] | Minimum inhibitory concentration (MIC), C. glabrata [8] [µg/mL] | Minimum inhibitory concentration (MIC), C. tropicalis [9] [µg/mL] | Minimum inhibitory concentration (MIC), C. albicans [10] [µg/mL] | Minimum fungicidal concentration (MFC), C. lipolytica [11] [µg/mL] | Minimum fungicidal concentration (MFC), C. tropicalis [12] [µg/mL] | other results |
| --- | --- | --- | --- | --- | --- | --- | --- | --- | --- | --- | --- | --- | --- |
| C[C@@H]1[C@H](O)[C@@H](C)/C=C/C=C/CC/C=C/C=C/C=C/C=C/C(O[C@H]2O[C@H](C)[C@@H](O)[C@H](N)[C@@H]2O)CC2O[C@](O)(CC(O)C(O)CCC(O)CC(O)CC(O)CC(=O)O[C@H]1C)CC(O)C2C(=O)O (stereo partly drawn) [Nystatin, nystatin, reference compound] |  |  |  |  |  |  |  |  |  |  |  |  | Fungicidal activity (MFC relative to MIC) [1]: fungicidal activity against all Candida strains; Antibiofilm concentration (256 mg/L) relative to the determined MIC ([2]; C. albicans biofilm): over 100 times; MBEC 24 h [2, 13]: 256 mg/L; MBEC 48 h [2, 14]: 256 mg/L; MBEC 72 h [2, 15]: 256 mg/L |
| CCCCCCCCCC(=O)N[C@@H](CCCCN)C(=O)N[C@@H](CCCNC(=N)N)C(=O)N[C@H](C(=O)N[C@H](C(=O)N[C@@H](CCC(N)=O)C(=O)N[C@@H](CCCNC(=N)N)C(=O)N[C@H](C(=O)N[C@@H](CCCCN)C(=O)N[C@@H](CC(=O)O)C(=O)N[C@@H](Cc1ccccc1)C(=O)N[C@@H](CC(C)C)C(=O)N[C@@H](CCCNC(=N)N)C(N)=O)[C@@H](C)CC)C(C)C)[C@@H](C)CC [V, C10-KR12-NH2] (Decanoyl-KRIVQRIKDFLR-NH2) | 4 g/L | >512 * mg/L | >512 * mg/L | >512 * mg/L |  |  |  |  |  |  |  |  | Antibiofilm activity against any type of biofilm [3]: did not exhibit antibiofilm activity |
| CC[C@H](C)[C@H](NC(=O)[C@H](CCCNC(=N)N)NC(=O)[C@H](CCC(N)=O)NC(=O)[C@@H](NC(=O)[C@@H](NC(=O)[C@H](CCCNC(=N)N)NC(=O)[C@H](CCCCN)NC(=O)c1ccccc1)[C@@H](C)CC)C(C)C)C(=O)N[C@@H](CCCCN)C(=O)N[C@@H](CC(=O)O)C(=O)N[C@@H](Cc1ccccc1)C(=O)N[C@@H](CC(C)C)C(=O)N[C@@H](CCCNC(=N)N)C(N)=O [VIII, Benzoic acid-KR12-NH2] (Bz-KRIVQRIKDFLR-NH2) |  |  |  |  | 32 (≈ 19.1 µM) | 256 (≈ 153 µM) | 64 (≈ 38.2 µM) | 256 (≈ 153 µM) | 8 (≈ 4.78 µM) | 64 (≈ 38.2 µM) | 32 (≈ 19.1 µM) | 16 (≈ 9.55 µM) | MHC5% (minimum hemolytic concentration causing hemolysis of 5% of human red blood cells) [4, 19]: >256 * g/L |
| CCCCCCCC(=O)NCCCC[C@H](NC(=O)CCCCCCC)C(=O)N[C@@H](CCCNC(=N)N)C(=O)N[C@H](C(=O)N[C@H](C(=O)N[C@@H](CCC(N)=O)C(=O)N[C@@H](CCCNC(=N)N)C(=O)N[C@H](C(=O)N[C@@H](CCCCN)C(=O)N[C@@H](CC(=O)O)C(=O)N[C@@H](Cc1ccccc1)C(=O)N[C@@H](CC(C)C)C(=O)N[C@@H](CCCNC(=N)N)C(N)=O)[C@@H](C)CC)C(C)C)[C@@H](C)CC [XVI, C8^α,C8^ε-KR12-NH2] (Octanoyl-K(Octanoyl)RIVQRIKDFLR-NH2) | >256 * g/L |  |  |  |  |  |  |  |  |  |  |  | Growth inhibition of C. tropicalis (MIC) [9, 20]: resistant; Growth inhibition of C. albicans (MIC) [10, 20]: resistant |
| CC[C@H](C)[C@H](NC(=O)[C@H](CCCNC(=N)N)NC(=O)[C@H](CCC(N)=O)NC(=O)[C@@H](NC(=O)[C@@H](NC(=O)[C@H](CCCNC(=N)N)NC(=O)[C@H](CCCCN)NC(=O)Cc1ccccc1)[C@@H](C)CC)C(C)C)C(=O)N[C@@H](CCCCN)C(=O)N[C@@H](CC(=O)O)C(=O)N[C@@H](Cc1ccccc1)C(=O)N[C@@H](CC(C)C)C(=O)N[C@@H](CCCNC(=N)N)C(N)=O [XXI, Phenylacetic acid-KR12-NH2] (PhAc-KRIVQRIKDFLR-NH2) |  |  |  |  | 16 (≈ 9.47 µM) | 256 (≈ 152 µM) | 64 (≈ 37.9 µM) | 256 (≈ 152 µM) | 8 (≈ 4.74 µM) | 64 (≈ 37.9 µM) | 16 (≈ 9.47 µM) | 16 (≈ 9.47 µM) | MHC5% (minimum hemolytic concentration causing hemolysis of 5% of human red blood cells) [4, 19]: 256 g/L |
| CC[C@H](C)[C@H](NC(=O)[C@H](CCCNC(=N)N)NC(=O)[C@H](CCC(N)=O)NC(=O)[C@@H](NC(=O)[C@@H](NC(=O)[C@H](CCCNC(=N)N)NC(=O)[C@H](CCCCN)NC(=O)c1ccc(-c2ccccc2)cc1)[C@@H](C)CC)C(C)C)C(=O)N[C@@H](CCCCN)C(=O)N[C@@H](CC(=O)O)C(=O)N[C@@H](Cc1ccccc1)C(=O)N[C@@H](CC(C)C)C(=O)N[C@@H](CCCNC(=N)N)C(N)=O [XXV, 4-Phenylbenzoic acid-KR12-NH2] ({Benzoyl(4-Ph)}-KRIVQRIKDFLR-NH2) | 32 g/L | >512 * mg/L | >512 * mg/L | >512 * mg/L |  |  |  |  |  |  |  |  | MIC, range over the tested strains ([1]; 48 h): 4 to 16 µg/mL |
| KRIVQRIKDFLR-NH2 [X, KR12-NH2] | >256 * g/L | >512 * mg/L | >512 * mg/L | >512 * mg/L |  |  |  |  |  |  |  |  |  |
| benzalkonium chloride [reference compound] |  |  |  |  | 1 | 2 | 4 | 1 | 0.5 | 2 | 2 | 2 | Fungicidal activity (MFC relative to MIC) [1]: fungicidal activity against all Candida strains; MBEC 24 h [2, 13]: 64 mg/L; MBEC 48 h [2, 14]: 128 mg/L; MBEC 72 h [2, 15]: 128 mg/L; Concentration effective against 48–72 h biofilms relative to MIC ([2]; C. albicans, 48–72 h biofilms, MBEC/MIC): > 60 times; Concentration effective against 24 h biofilm relative to MIC ([2]; C. albicans, 24 h biofilm, MBEC/MIC): over 30 times |
